Patent US20250098679A1, “HERBICIDAL PYRIDONE DERIVATIVES” (SYNGENTA CROP PROTECTION AG, priority 2021, published 2025)

Columns and labels:
Assay type in all cases: in vivo
[1] = system: Echinochloa crus-galli (ECHCG); test: Post-emergence Test, Echinochloa crus-galli (ECHCG); design: key to percentage damage caused to the plant, ECHCG (five-point scale): 5=81-100%, 4=61-80%, 3=41-60%, 2=21-40%, 1=0-20% damage; details: 250 g/Ha, evaluated after 13 days
Method in brief: (§1)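 Pots sprayed with compound in acetone/water (50:50) with 0.5% Tween 20, at 1000 g/ha unless noted, glasshouse 24/16 °C, 14 h light, 65% humidity. Damage scored 13 days after spraying on a five-point scale (5=81-100% to 1=0-20%).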

[2] = system: Amaranthus retoflexus (AMARE); test: Post-emergence Test, Amaranthus retoflexus (AMARE); design: key to percentage damage caused to the plant, AMARE (five-point scale): 5=81-100%, 4=61-80%, 3=41-60%, 2=21-40%, 1=0-20% damage; details: evaluated after 13 days
Method in brief: as §1

[3] = system: Echinochloa crus-galli (ECHCG); test: Pre-emergence Test, Echinochloa crus-galli (ECHCG); details: evaluated after 13 days
[4] = system: Setaria faberi (SETFA); test: Post-emergence Test, Setaria faberi (SETFA); design: key to percentage damage caused to the plant, SETFA (five-point scale): 5=81-100%, 4=61-80%, 3=41-60%, 2=21-40%, 1=0-20% damage; details: 1000 g/ha, evaluated after 13 days
Method in brief: as §1

[5] = system: Zea mays (ZEAMX); test: Pre-emergence Test, Zea mays (ZEAMX); details: evaluated after 13 days
[6] = system: Amaranthus retoflexus (AMARE); test: Pre-emergence Test, Amaranthus retoflexus (AMARE); details: evaluated after 13 days
[7] = system: Zea mays (ZEAMX); test: Post-emergence Test, Zea mays (ZEAMX); design: key to percentage damage caused to the plant, ZEAMX (five-point scale): 5=81-100%, 4=61-80%, 3=41-60%, 2=21-40%, 1=0-20% damage; details: evaluated after 13 days
Method in brief: as §1

[8] = system: Amaranthus palmeri (AMAPA); test: Post-emergence Test, Amaranthus palmeri (AMAPA); design: key: 5=81-100%, 4=61-80%, 3=41-60%, 2=21-40%, 1=0-20% damage; details: evaluated after 13 days
Method in brief: as §1

[9] = system: Amaranthus palmeri (AMAPA); test: Pre-emergence Test, Amaranthus palmeri (AMAPA); details: evaluated after 13 days
[10] = system: Ipomoea hederacea (IPOHE); test: Pre-emergence Test, Ipomoea hederacea (IPOHE); details: evaluated after 13 days
[11] = system: Ipomoea hederacea (IPOHE); test: Post-emergence Test, Ipomoea hederacea (IPOHE); design: key to percentage damage caused to the plant, IPOHE (five-point scale): 5=81-100%, 4=61-80%, 3=41-60%, 2=21-40%, 1=0-20% damage; details: evaluated after 13 days
Method in brief: as §1

Row | Compound | percentage damage caused to the plant, ECHCG (five-point scale) [1] | percentage damage caused to the plant, AMARE (five-point scale) ([2]; 250 g/Ha) | percentage damage caused to the plant, AMARE (five-point scale) ([2]; 1000 g/ha) | Pre-emergence Test ECHCG, percentage damage caused to the plant (five-point scale) ([3]; 250 g/Ha (*)) | Pre-emergence Test ECHCG, percentage damage caused to the plant (five-point scale) ([3]; 1000 g/ha) | percentage damage caused to the plant, SETFA (five-point scale) [4] | Pre-emergence Test ZEAMX, percentage damage caused to the plant (five-point scale) ([5]; 250 g/Ha (*)) | Pre-emergence Test ZEAMX, percentage damage caused to the plant (five-point scale) ([5]; 1000 g/ha) | Pre-emergence Test AMARE, percentage damage caused to the plant (five-point scale) ([6]; 250 g/Ha (*)) | Pre-emergence Test AMARE, percentage damage caused to the plant (five-point scale) ([6]; 1000 g/ha) | percentage damage caused to the plant, ZEAMX (five-point scale) ([7]; 250 g/Ha) | percentage damage caused to the plant, ZEAMX (five-point scale) ([7]; 1000 g/ha) | percentage damage caused to the plant, AMAPA (five-point scale) ([8]; 250 g/Ha) | percentage damage caused to the plant, AMAPA (five-point scale) ([8]; 1000 g/ha) | Pre-emergence Test AMAPA, percentage damage caused to the plant (five-point scale) ([9]; 250 g/Ha (*)) | Pre-emergence Test AMAPA, percentage damage caused to the plant (five-point scale) ([9]; 1000 g/ha) | Pre-emergence Test IPOHE, percentage damage caused to the plant (five-point scale) ([10]; 250 g/Ha (*)) | Pre-emergence Test IPOHE, percentage damage caused to the plant (five-point scale) ([10]; 1000 g/ha) | percentage damage caused to the plant, IPOHE (five-point scale) ([11]; 250 g/Ha) | percentage damage caused to the plant, IPOHE (five-point scale) ([11]; 1000 g/ha)
1 | CCn1c(Cn2ccc(COC)n2)cc(=O)c(C(=O)O)c1-c1ccc(Cl)c(Cl)c1 [Compound 162, 2-(3,4-dichlorophenyl)-1-ethyl-6-[[3-(methoxymethyl)pyrazol-1-yl]methyl]-4-oxo-pyridine-3-carboxylic acid] | 3 (3=41-60%) | 1 (1=0-20%) | 2 (2=21-40%) | 3 (3=41-60%) | 5 (5=81-100%) | 5 (5=81-100%) | 1 (1=0-20%) | 4 (4=61-80%) | 1 (1=0-20%) | 3 (3=41-60%) | 1 (1=0-20%) | 3 (3=41-60%) | 1 (1=0-20%) | 2 (2=21-40%) | 0 | 1 (1=0-20%) | 1 (1=0-20%) | 4 (4=61-80%) | 2 (2=21-40%) | 4 (4=61-80%)
2 | CCOc1ccn(Cc2cc(=O)c(C(=O)O)c(-c3ccc(Cl)c(Cl)c3)n2CC)n1 [Compound 164, 2-(3,4-dichlorophenyl)-6-[(3-ethoxypyrazol-1-yl)methyl]-1-ethyl-4-oxo-pyridine-3-carboxylic acid] | 4 (4=61-80%) | 1 (1=0-20%) | 3 (3=41-60%) | 4 (4=61-80%) | 5 (5=81-100%) | 5 (5=81-100%) | 1 (1=0-20%) | 0 | 1 (1=0-20%) | 1 (1=0-20%) | 4 (4=61-80%) | 4 (4=61-80%) | 1 (1=0-20%) | 3 (3=41-60%) | 0 | 1 (1=0-20%) | 4 (4=61-80%) | 4 (4=61-80%) | 3 (3=41-60%) | 4 (4=61-80%)
3 | CCn1c(Cn2ccc(OCC(F)F)n2)cc(=O)c(C(=O)O)c1-c1ccc(Cl)c(Cl)c1 [Compound 165, 2-(3,4-dichlorophenyl)-6-[[3-(2,2-difluoroethoxy)pyrazol-1-yl]methyl]-1-ethyl-4-oxo-pyridine-3-carboxylic acid] | 3 (3=41-60%) | 1 (1=0-20%) | 3 (3=41-60%) | 4 (4=61-80%) | 5 (5=81-100%) | 4 (4=61-80%) | 1 (1=0-20%) | 4 (4=61-80%) | 0 | 1 (1=0-20%) | 2 (2=21-40%) | 3 (3=41-60%) | 1 (1=0-20%) | 2 (2=21-40%) | 0 | 2 (2=21-40%) | 3 (3=41-60%) | 4 (4=61-80%) | 4 (4=61-80%) | 4 (4=61-80%)
4 | CCn1c(Cn2ccc(OC(C)C)n2)cc(=O)c(C(=O)O)c1-c1ccc(Cl)c(Cl)c1 [Compound 166, 2-(3,4-dichlorophenyl)-1-ethyl-6-[(3-isopropoxypyrazol-1-yl)methyl]-4-oxo-pyridine-3-carboxylic acid] | 4 (4=61-80%) | 0 | 1 (1=0-20%) | 5 (5=81-100%) | 5 (5=81-100%) | 5 (5=81-100%) | 1 (1=0-20%) | 5 (5=81-100%) | 0 | 1 (1=0-20%) | 2 (2=21-40%) | 4 (4=61-80%) | 1 (1=0-20%) | 1 (1=0-20%) | 0 | 1 (1=0-20%) | 2 (2=21-40%) | 4 (4=61-80%) | 2 (2=21-40%) | 4 (4=61-80%)
5 | CCn1c(Cn2ccc(Br)n2)cc(=O)c(C(=O)O)c1-c1ccc(Cl)c(Cl)c1 [Compound 177, 6-[(3-bromopyrazol-1-yl)methyl]-2-(3,4-dichlorophenyl)-1-ethyl-4-oxo-pyridine-3-carboxylic acid] | 3 (3=41-60%) | 1 (1=0-20%) | 3 (3=41-60%) | 4 (4=61-80%) | 5 (5=81-100%) | 4 (4=61-80%) | 0 | 0 | 0 | 1 (1=0-20%) | 1 (1=0-20%) | 1 (1=0-20%) | 2 (2=21-40%) | 2 (2=21-40%) | 1 (1=0-20%) | 1 (1=0-20%) | 1 (1=0-20%) | 2 (2=21-40%) | 4 (4=61-80%) | 3 (3=41-60%)
